What all share (type): in vivo
Series [1] relates to zebrafish embryos. Kind of series: Dose-response zebrafish live assay, single chemicals (developmental toxicity). The following applies: for concentration at which embryos were relatively normal / symptoms absent / lowest dose causing significant developmental abnormalities (toxic at): 2 dpf; for lethal concentration: 100% lethality / lethal by. On the procedure:
Dose-dependent toxicities in zebrafish embryos were assessed by the lowest dose that caused significant developmental abnormalities 2 days post-fertilization (2 dpf) in a dose-response live assay. […] Starting with Pyraclostrobin, it was identified as toxic at 30 nM. It induced developmental delays in the embryos without visible deformities. […] It appeared relatively normal at 5 µM. This twitching phenotype indicates specific neuronal toxicity. […] These symptoms were absent at lower concentrations (30 µM), highlighting a dosage-sensitive relationship.
(§1) First, the toxicity of single chemicals in zebrafish embryos is determined. Using the toxicity data of single chemicals as a baseline, we screened mixtures for altered activity and characterized the optimal concentration ratios of components. For chemical treatments, 1000× working stocks are prepared in DMSO. Dechorionated zebrafish embryos, […], are placed in 0.5 mL of fish water (0.3 g/L sea salt) in 24-well plates. The 1000× stock solution of chemicals is diluted to 2× in fish water with 2% DMSO added. Then, 0.5 mL of the 2× diluted chemical solution is added to the 0.5 mL of fish water containing the embryos to achieve a final concentration of 1× compound in 1% DMSO.
Figure 9 Dose-dependent toxicity assessment of AI-CPTM predicted chemicals (Table 1, Table 2, Table 3 and Table 4) as the lowest dose leading to, what is defined here, as significant developmental abnormalities at 2 days post-fertilization (2 dpf) in a dose-response zebrafish live assay.
We assessed individual chemicals for developmental toxicity, indicating any disruption in embryonic development from 1 to 4 days post-fertilization (dpf). Embryos are exposed to chemicals in their bath water from 1 dpf to 4 dpf, without changing the water during exposure. Initially, chemicals are screened by testing them at a series of concentrations increasing by half-log steps. […] Each embryo is assigned a score reflecting the severity of observed phenotypes, with the average score representing the group. The EC50 for developmental toxicity is defined as a score of five on this teratogenicity scale (Figure 10 and Supplementary Material S2). Once the effective range is identified, the EC50 is determined by testing a linear series of concentrations spanning from non-toxic to toxic levels. For chemicals not toxic at 10 µM, tests are extended up to 200 µM, with those showing no effects at this level considered non-toxic.

The test system of series [2] is zebrafish embryos. Kind of series: Zebrafish-embryo mixture toxicity, mixed chemical phenotype score and interaction. To be noted: with DMSO, max 20 = normal. On the procedure: as §1
Figure 10 Mixed chemical phenotypes and how they are scored. The mixed chemical phenotype score is the sum of the scores for the five individual fish in a well. Two wells were treated per chemical combination, and the scores are averaged for the wells. Scoring was as follows: dead = 0; severely deformed = 1; deformed = 2; slightly deformed = 3; and normal phenotypes = 4.
We tested the top 300 chemical mixtures, as prioritized by AI-CPTM, which were randomly selected and readily purchasable, on zebrafish embryos. […] We then compared the toxicity predictions made by the machine-learning model with the results obtained from the zebrafish assays.
The EC50, indicating the median effective concentration for developmental toxicity, is determined using morphological criteria. Fish are identified by date and well number (Figure 10). In each well containing five fish, the mixed compound phenotype score is the sum of the scores for the individual fish. Two wells are treated per combination, and the scores are averaged across these wells (Supplementary Material S2). Scoring follows this scale: dead = 0; severely deformed = 1; deformed = 2; slightly deformed = 3; normal phenotypes = 4. […] The EC50 and lowest observable effect concentration (LOEC) for binary mixtures are determined by testing a linear concentration series of the first chemical against five concentrations of the second chemical, including a vehicle control.

The subject of series [3] is zebrafish embryos. Kind of series: PFOS/PFOA zebrafish-embryo lethality (LD50), sub-lethal effects (EC50) and mixture survival assay. To be noted: for LD50: embryos exposed at 2 dpf for 24 h at 33 °C, average of three experiments; for EC50: sub-lethal adverse effects, exposed at 2 dpf for 24 h at 33 °C. An excerpt:
The methodology for assessing the toxicity in zebrafish is detailed in our earlier publication. The data presented in Table 3 and Table 4 and Figure 12 show the acute and sub-lethal toxicity of PFOS and PFOA individually and in combination with zebrafish embryos. This initial study offered a comparative insight into their toxic profiles in terms of lethal (LD50) and effective (EC50) concentrations, which are important for measuring their toxic effects. […] These concentrations reflect the exposure of zebrafish embryos to PFOS and PFOA at 2 days post-fertilization (dpf) for one day at a temperature of 33 °C. […] These effects include severe developmental abnormalities, such as bent body axis, edema, cloudy tissue formation, and developmental delays, signaling significant toxicity even at lower concentrations.
We explored further the combined effects of PFOS and PFOA, as shown in Table 4 and Figure 12, to examine how varying concentrations of PFOS affect the LD50 of PFOA in a mixture. The LD50 is the dose at which 50% of the embryos are dead. […] A five dose-response curve for PFOA was tested against three fixed concentrations, 68 µM, 38 µM, and 22 µM of PFOS at 2 dpf for one day at 33 °C. […] Nonetheless, as each experiment is internally controlled, relative toxicity and mixture interactions are accurately detected.
PFOS requires a lower concentration to be lethal and affects development at much lower concentrations compared to PFOA. […] Five concentrations of PFOA were tested to generate the dose-response curves. […] Overall, these experiments support predictions of AI-CPTM toxicity and chemical interaction effects.

Setting [4] is: single chemical, tested up to 200 µM.

`CC(C)(C)[C@@H](O)[C@@H](Cc1ccc(Cl)cc1)n1cncn1` (racemic) [Paclobutrazol]: the “concentration at which embryos were relatively normal / symptoms absent” value in the series on zebrafish embryos [1] (single chemical) was found to be 30000 nM. Further, the “lowest dose causing significant developmental abnormalities (toxic at)” value with zebrafish embryos [1] (setting [4]) was 50 µM. Further, the “phenotype score of single chemical (Average / Compound #1 / Compound #2 phenotype score)” value is recorded as 17.5 in the series with zebrafish embryos [2] (50 µM) and 20 in the series on zebrafish embryos [2] (100 µM).
With `Oc1c(Br)cc(Br)cc1Br` [2,4,6-Tribromophenol], in the series on zebrafish embryos [1] (setting [4]), the “lowest dose causing significant developmental abnormalities (toxic at)” value was 2 µM. This compound also displayed a lethal concentration in the series with zebrafish embryos [1] (single chemical) of 10 µM. The “phenotype score of single chemical (Average / Compound #1 / Compound #2 phenotype score)” value with zebrafish embryos [2] (2 µM) came to 14. For the same compound, the “phenotype score of single chemical (Average phenotype score)” value with zebrafish embryos [2] (4 µM) is given as 0.
Take `CC1(C)C(C=C(Cl)Cl)C1C(=O)OC(C#N)c1ccc(F)c(Oc2ccccc2)c1` (stereo not drawn) [Baythroid]: the “effect on embryo development (Figure 11)” value with zebrafish embryos [1] (at 200 µm) was “pronounced deformities”. For the same compound, the “lowest dose causing significant developmental abnormalities (toxic at)” value in the series on zebrafish embryos [1] (setting [4]) was determined as 20 µM.
On the same counts, the results for `CCCCC(CC)COC(=O)c1ccccc1C(=O)OCC(CC)CCCC` (stereo not drawn) [Bis-(2-Ethylhexyl) Phthalate] are “pronounced deformities” and over 200 µM.
Turning to `CCCCOCN(C(=O)CCl)c1c(CC)cccc1CC` [Butachlor], in the series with zebrafish embryos [1] (at 200 µm), the “effect on embryo development (Figure 11)” value is recorded as “pronounced deformities”. Besides, the “concentration at which embryos were relatively normal / symptoms absent” value in the series on zebrafish embryos [1] (single chemical) came out at 100000 nM. The “lowest dose causing significant developmental abnormalities (toxic at)” value in the series on zebrafish embryos [1] (setting [4]) is reported as 200 µM. Further, in the series on zebrafish embryos [2] (100 µM), the “phenotype score of single chemical (Average / Compound #1 / Compound #2 phenotype score)” value is recorded as 16. Besides, in the series on zebrafish embryos [2] (200 µM), the “phenotype score of single chemical (Average phenotype score)” value amounted to 0.
`O=C(OC1CCCCC1)c1ccccc1C(=O)OC1CCCCC1` [Dicyclohexyl Phthalate, Dicyclohexyl Phthalate (DCHP)]: in the series with zebrafish embryos [1] (at 200 µm), the “effect on embryo development (Figure 11)” value is “marked malformations and growth retardation”. The “lowest dose causing significant developmental abnormalities (toxic at)” value in the series with zebrafish embryos [1] (setting [4]) worked out at 200 µM. In addition, the “phenotype score of single chemical (Average / Compound #1 / Compound #2 phenotype score)” value in the series with zebrafish embryos [2] (100 µM) turned out to be 20. Besides, the “phenotype score of single chemical (Average phenotype score)” value in the series on zebrafish embryos [2] (200 µM) is 20.
For `CC1(C)C(C(=O)OC(C#N)c2cccc(Oc3ccccc3)c2)C1(C)C` (stereo not drawn) [Fenpropathrin], in the series with zebrafish embryos [1] (single chemical), the “concentration at which embryos were relatively normal / symptoms absent” value came out at 5000 nM. Also, the “lowest dose causing significant developmental abnormalities (toxic at)” value in the series with zebrafish embryos [1] (setting [4]) is 10 µM. The “phenotype score of single chemical (Average / Compound #1 / Compound #2 phenotype score)” value in the series with zebrafish embryos [2] (5 µM) was found to be 10. In the series with zebrafish embryos [2] (10 µM), the “phenotype score of single chemical (Average phenotype score)” value is on record as 0.
Take `COCc1cnc(C2=NC(C)(C(C)C)C(=O)N2)c(C(=O)O)c1` (stereo not drawn) [Imazamox]: the “effect on embryo development (Figure 11)” value in the series on zebrafish embryos [1] (at 200 µm) was “marked malformations and growth retardation”. The “lowest dose causing significant developmental abnormalities (toxic at)” value in the series on zebrafish embryos [1] (setting [4]) was over 200 µM.
With `CC(CNCc1ccccc1O)NCc1ccccc1O` (stereo not drawn) [Motor fuel oil, Alpha, alpha’-(1-methylethylenediimino)di-ortho-cresol], in the series with zebrafish embryos [1] (single chemical), the “concentration at which embryos were relatively normal / symptoms absent” value was 1000 nM and the lethal concentration came out at 10 µM. For the same compound, the “lowest dose causing significant developmental abnormalities (toxic at)” value with zebrafish embryos [1] (setting [4]) worked out at 5 µM. Besides, the “phenotype score of single chemical (Average / Compound #1 / Compound #2 phenotype score)” value in the series with zebrafish embryos [2] (2.5 µM) was 16. Besides, the “phenotype score of single chemical (Average / Compound #1 / Compound #2 phenotype score)” value in the series with zebrafish embryos [2] (5 µM) is 6.
Usually EC50 stands for the concentration giving half of the maximal effect. For `O=C(O)C(F)(F)C(F)(F)C(F)(F)C(F)(F)C(F)(F)C(F)(F)C(F)(F)F` [PFOA, Perfluorooctanoic acid (PFOA)], in the series on zebrafish embryos [3], the LD50 was found to be 187.5 µM and the EC50 stood at 29.5 µM.
As to `O=S(=O)(O)C(F)(F)C(F)(F)C(F)(F)C(F)(F)C(F)(F)C(F)(F)C(F)(F)C(F)(F)F` [PFOS, Perfluorooctane sulfonic acid (PFOS)], in the series with zebrafish embryos [3] (68 μM PFOS, 0 μM PFOA), the survival is 100%. In the series with zebrafish embryos [3], the LD50 is 53 µM and the EC50 amounted to 11 µM.
On to `COc1cnc(OC)n2nc(NS(=O)(=O)c3c(OCC(F)F)cccc3C(F)(F)F)nc12` [Penoxsulam], for which the “effect on embryo development (Figure 11)” value in the series on zebrafish embryos [1] (at 200 µm) was “moderate deformities”. Moreover, the “lowest dose causing significant developmental abnormalities (toxic at)” value in the series with zebrafish embryos [1] (setting [4]) is reported as over 200 µM.
For `COC(=O)N(OC)c1ccccc1COc1ccn(-c2ccc(Cl)cc2)n1` [Pyraclostrobin], in the series on zebrafish embryos [1] (at 30 nm), the “effect on embryo development (Figure 11)” value is recorded as “minimal effects”. In addition, the “effect on embryo development (Figure 11)” value in the series on zebrafish embryos [1] (at 200 µm) is on record as “significant embryonic damage”. Also, in the series on zebrafish embryos [1] (single chemical), the “concentration resulting in embryo lysis” value is given as 100 nM and the “lowest dose causing significant developmental abnormalities (toxic at)” value was 0.03 µM. Also, in the series on zebrafish embryos [2] (0.01 µM), the “phenotype score of single chemical (Average / Compound #1 / Compound #2 phenotype score)” value is recorded as 20. Moreover, the “phenotype score of single chemical (Average phenotype score)” value in the series on zebrafish embryos [2] (0.02 µM) worked out at 20.
Consider `CC(C)(C)c1ccc(CSc2cnn(C(C)(C)C)c(=O)c2Cl)cc1` [Pyridaben], for which the “effect on embryo development (Figure 11)” value in the series with zebrafish embryos [1] (at 50 nm) is “noticeable developmental delays and morphological abnormalities”. In the series with zebrafish embryos [1] (single chemical), the “concentration causing developmental stalling at the 8-somite stage” value was found to be 100 nM and the “lowest dose causing significant developmental abnormalities (toxic at)” value was found to be 0.05 µM. Further, the “phenotype score of single chemical (Average / Compound #1 / Compound #2 phenotype score)” value in the series with zebrafish embryos [2] (0.05 µM) amounted to 20. In the series on zebrafish embryos [2] (0.1 µM), the “phenotype score of single chemical (Average phenotype score)” value amounted to 18.5.
Take `CC/C(=N\OC/C=C/Cl)C1=C(O)CC(C2CCOCC2)CC1=O` (stereo not drawn) [Tepraloxydim]: the “effect on embryo development (Figure 11)” value in the series on zebrafish embryos [1] (at 200 µm) is “moderate deformities”. Further, the “lowest dose causing significant developmental abnormalities (toxic at)” value in the series on zebrafish embryos [1] (setting [4]) is reported as over 200 µM.
For `CC(C)=CC1C(C(=O)OCN2C(=O)C3=C(CCCC3)C2=O)C1(C)C` (stereo not drawn) [Tetramethrin], the “effect on embryo development (Figure 11)” value in the series with zebrafish embryos [1] (at 200 µm) was “pronounced deformities”. In the series with zebrafish embryos [1] (setting [4]), the “lowest dose causing significant developmental abnormalities (toxic at)” value came out at 5 µM. Also, in the series with zebrafish embryos [2] (5 µM), the “phenotype score of single chemical (Average / Compound #1 / Compound #2 phenotype score)” value was 20. In the series with zebrafish embryos [2] (10 µM), the “phenotype score of single chemical (Average phenotype score)” value amounted to 15.
In the case of `COc1nc(C)nc(NC(=O)NS(=O)(=O)c2ccccc2OCCCl)n1` [Triasulfuron], the “lowest dose causing significant developmental abnormalities (toxic at)” value in the series with zebrafish embryos [1] (setting [4]) is listed as over 200 µM.

(Values after publication PMC11281031, “A Machine-Learning-Driven Pathophysiology-Based New Approach Method for the Dose-Dependent Assessment of Hazardous Chemical Mixtures and Experimental Validations” (Toxics, 2024).)
